From patent US11485751B2, “Apramycin derivatives” (WAYNE STATE UNIVERSITY, priority 2017, dated 2022)
pIC50: −log10 of the molar value. Converted amounts (≈) assume the structure as drawn.

Assays:
[1] = tested on: AG033 P. aer. APH(3′)-II AAC(6′)-I; assay: Antibacterial activity, clinical isolate AG033; format: cell-based; set-up: unit not given here
Description: (§1) Minimal inhibitory concentrations (MIC) have been determined by broth microdilution assays (CLSI. Methods for Dilution Antimicrobial Susceptibility Tests for Bacteria That Grow Aerobically; Approved Standard—Tenth Edition. CLSI document M07-A10. Wayne, Pa.: Clinical and Laboratory Standards Institute; 2015.).
(§2) Table 4 and 5 show the antibacterial activity of the compounds of the invention against bacterial reference strains (table 4) and against representative clinical isolates (table 5).

[2] = tested on: AG220, Pseudomonas aeruginosa ATCC27853; assay: MIC reference strain AG220; format: cell-based; conditions: Pseudomonas aeruginosa, ATCC27853, reference strain ATCC27853; read-out: MIC AG220 P. aeruginosa
Description: as §1, §2
(§3) Legend to Tables: GEN, gentamicin; AMK, amikacin; PLZ, plazomicin; APR, apramycin; AG212, Escherichia coli ATCC25922; AG215, Klebsiella pneumonia; AG220, Pseudomonas aeruginosa ATCC27853; AG225, Acinetobacter baumannii pittii; AG290, Enterobacter cloacae; […], Mycobacterium smegmatis. MICs for AG192 have been determined in the presence of 0.5 μg/mL of ampicillin in the medium to mimic the synergistic effect of aminoglycoside and β-lactam antibiotics combination therapy in the treatment of Enterococcus infections in humans.

[3] = tested on: Engineered E. coli pH427 rmtF; assay: Activity against G1405-methylated 16S-rRNA, E. coli pH427 rmtF; format: cell-based
Description: as §1

[4] = tested on: Engineered E. coli pH424 armA; assay: Activity against G1405-methylated 16S-rRNA, E. coli pH424 armA; format: cell-based
Description: as §1

[5] = tested on: AG215, Klebsiella pneumonia; assay: MIC reference strain AG215; format: cell-based; conditions: Klebsiella pneumoniae, reference strain; read-out: MIC AG215 K. pneumonia
Description: as §1, §2, §3

[6] = tested on: AG225, Acinetobacter baumannii pittii; assay: MIC reference strain AG225; format: cell-based; conditions: Acinetobacter baumannii, reference strain; read-out: MIC AG225 A. baumannii
Description: as §1, §2, §3

[7] = tested on: Enterob. AG302 AAC(3)-II AAC(6′)-I rmtC; assay: Activity against G1405-methylated 16S-rRNA, clinical isolate AG302; format: cell-based
Description: as §1

[8] = tested on: Engineered E. coli pH426 rmtC; assay: Activity against G1405-methylated 16S-rRNA, E. coli pH426 rmtC; format: cell-based
Description: as §1

[9] = tested on: AG290, Enterobacter cloacae; assay: MIC reference strain AG290; format: cell-based; conditions: Enterobacter cloacae; reference strain; read-out: MIC AG290 E. cloacae
Description: as §1, §2, §3

ATCC19977 M. abcessus = assay: MIC reference strain ATCC19977; format: cell-based; conditions: read-out: MIC ATCC19977 M. abcessus
Description: as §1, §2

[10] = tested on: AG212, Escherichia coli ATCC25922; assay: MIC reference strain AG212; format: cell-based; conditions: Escherichia coli; reference strain ATCC25922; read-out: MIC AG212 E. coli
Description: as §1, §2, §3

AG031 P. aer. APH(3′)-II = assay: Antibacterial activity, clinical isolate AG031; format: cell-based; set-up: unit not given here
Description: as §1, §2

AG038 MRSA = assay: Antibacterial activity, clinical isolate AG038; format: cell-based; set-up: unit not given here
Description: as §1, §2

[11] = tested on: Engineered E. coli pH430 WT; assay: Activity, engineered E. coli pH430 WT; format: cell-based; conditions: wild type
Description: as §1

[12] = tested on: K. pneum. AG269 AAC(3)-II AAC(6′)-I rmtB; assay: Activity against G1405-methylated 16S-rRNA, clinical isolate AG269; format: cell-based
Description: as §1

AG032 P. aer. APH(3′)-II = assay: Antibacterial activity, clinical isolate AG032; format: cell-based; set-up: unit not given here
Description: as §1, §2

[13] = tested on: A baum. AG227 APH(3′)-I armA; assay: Activity against G1405-methylated 16S-rRNA, clinical isolate AG227; format: cell-based
Description: as §1

[14] = tested on: E. coli AG153 AAC(3)-II APH(3′)-II rmtB; assay: Activity against G1405-methylated 16S-rRNA, clinical isolate AG153; format: cell-based
Description: as §1

[15] = tested on: Engineered E. coli pH425 rmtB; assay: Activity against G1405-methylated 16S-rRNA, E. coli pH425 rmtB; format: cell-based
Description: as §1

[16] = tested on: AG042 MRSA AAC(6′)-I ANT(4′)-I APH(2′); assay: Antibacterial activity, clinical isolate AG042; format: cell-based; set-up: unit not given here
Description: as §1, §2

[17] = tested on: AG039 MRSA AAC(6′)-I ANT(4′)-I; assay: Antibacterial activity, clinical isolate AG039; format: cell-based
Description: as §1, §2

AG003 E. coli AAC(3)-II = assay: Antibacterial activity, clinical isolate AG003; format: cell-based
Description: as §1, §2

AG055 E. coli WT = assay: Antibacterial activity, clinical isolate AG055; format: cell-based; set-up: unit not given here
Description: as §1, §2

AG001 E. coli WT = assay: Antibacterial activity, clinical isolate AG001; format: cell-based; set-up: unit not given here
Description: as §1, §2

[18] = tested on: human mitochondrial ribosomes; assay: in-vitro translation assay, human mitochondrial (human chimeric) ribosomes; format: biochemical
Description: (§4) IC50 values for bacterial, human chimeric, and rabbit reticulocyte ribosomes have been determined by in-vitro translation assays as described previously (Proc. Nat. Ac. Sci USA 2012, 109(27):10984-10989).
(§5) Minimal inhibitory concentrations (MICs, […]) against clinical isolates from Institute of Medical Microbiology, Univ. Zurich, and the IC50 values for bacterial, human mitochondrial and human cytosolic ribosomes are indicated.

WT clinical isolates = assay: MIC broth microdilution, WT; format: cell-based; conditions: read-out: MIC WT, clinical isolates, IMM Univ. Zurich; wild type
Description: as §1, §5
(§6) Minimal inhibitory concentrations (μg/ml) against clinical isolates from Institute of Medical Microbiology, Univ. Zurich, and the IC50 values for bacterial, human mitochondrial and human cytosolic ribosomes are indicated.
(§7) The Minimal inhibitory concentrations (MICs, μg/ml) against clinical isolates from Institute of Medical Microbiology, Univ Zurich, and the IC50 values for bacterial, human mitochondrial and human cytosolic ribosomes are indicated.

bacterial ribosomes = assay: in-vitro translation assay, bacterial ribosomes; format: biochemical
Description: as §4, §5

[19] = tested on: Engineered E. coli AG103 armA; assay: Activity against G1405-methylated 16S-rRNA, E. coli AG103 armA; format: cell-based
Description: as §1

[20] = tested on: human cytosolic ribosomes; assay: in-vitro translation assay, human cytosolic ribosomes; format: biochemical
Description: as §4, §5

[21] = tested on: clinical isolates carrying AAC(3)-IV; assay: MIC broth microdilution, AAC(3)-IV; format: cell-based; conditions: clinical isolates, IMM Univ. Zurich; AAC(3)-IV; read-out: MIC AAC(3)-IV
Description: as §1, §5, §6, §7

AG173 E. coli AAC(3)-IV = assay: Antibacterial activity, clinical isolate AG173; format: cell-based
Description: as §1, §2

isolates carrying apmA = assay: MIC broth microdilution, apmA; format: cell-based; conditions: apmA resistance gene
Description: Minimal inhibitory concentrations (MIC) have been determined by broth microdilution assays (CLSI. Methods for Dilution Antimicrobial Susceptibility Tests for Bacteria That Grow Aerobically; Approved Standard—Tenth Edition. CLSI document M07-A10. Wayne, Pa.: Clinical and Laboratory Standards Institute; 2015.). […]
as §6, §7

[22] = tested on: SZ380, Mycobacterium smegmatis; assay: MIC reference strain SZ380; format: cell-based; conditions: Mycolicibacterium smegmatis, reference strain; read-out: MIC SZ380 M. smegmatis
Description: as §1, §2, §3

Structure (SMILES)	Antibacterial activity AG033 P. aer. APH(3′)-II AAC(6′)-I [1]	MIC [2] [µg/mL]	Activity E. coli pH427 rmtF [3]	Activity E. coli pH424 armA [4]	MIC [5] [µg/mL]	MIC [6] [µg/mL]	Activity E. coli pH426 rmtC [8]	MIC [9] [µg/mL]	MIC (ATCC19977 M. abcessus) [µg/mL]	MIC [10] [µg/mL]	Antibacterial activity AG031 P. aer. APH(3′)-II (AG031 P. aer. APH(3′)-II)	Antibacterial activity AG038 MRSA (AG038 MRSA)	Activity E. coli pH430 WT [11]	Antibacterial activity AG032 P. aer. APH(3′)-II (AG032 P. aer. APH(3′)-II)	Activity E. coli pH425 rmtB [15]	Antibacterial activity AG042 MRSA AAC(6′)-I ANT(4′)-I APH(2′) [16]	Antibacterial activity AG039 MRSA AAC(6′)-I ANT(4′)-I [17]	also measured
NCC[C@H](O)C(=O)N[C@@H]1C[C@H](N)[C@@H](O[C@H]2O[C@H](CN)[C@@H](O)[C@H](O)[C@H]2O)[C@H](O)[C@H]1O[C@H]1O[C@H](CO)[C@@H](O)[C@H](N)[C@H]1O [AMK, amikacin, reference compound]	64	2	>128	>128	1	2	>128	1	2 (≈ 3.42 µM)	2	4	4	1	4	>128	16-32	2-4	Activity Enterob. AG302 AAC(3)-II AAC(6′)-I rmtC [7]: >256; Activity K. pneum. AG269 AAC(3)-II AAC(6′)-I rmtB [12]: >256; Activity A baum. AG227 APH(3′)-I armA [13]: >256; Activity E. coli AG153 AAC(3)-II APH(3′)-II rmtB [14]: >256
CNC1C(OC2OC(CO)C(N)C(O)C2O)OC2CC(N)C(OC3C(N)CC(N)C(O)C3F)OC2C1O (centres unmarked) [DC170, 5-Deoxy-5-fluoro apramycin]	32	8	4	2	2	4 to 8	4	4	1 (≈ 1.85 µM)	4	8-16	4-8	4	16	4	8	4-8	Antibacterial activity AG003 E. coli AAC(3)-II (AG003 E. coli AAC(3)-II): 8; Antibacterial activity AG055 E. coli WT (AG055 E. coli WT): 4; Antibacterial activity AG001 E. coli WT (AG001 E. coli WT): 8; pIC50 [18]: 4.21; MIC (WT clinical isolates): 4 µg/mL (≈ 7.39 µM); pIC50 (bacterial ribosomes): 7.22; Activity E. coli AG103 armA [19]: 2; pIC50 [20]: 4.13; MIC [21]: > 32 µg/mL; Antibacterial activity AG173 E. coli AAC(3)-IV (AG173 E. coli AAC(3)-IV): 64; MIC apmA (isolates carrying apmA): 32 µg/mL (≈ 59.1 µM); MIC [22]: 0.25 µg/mL
